# Reference: patent US9006232B2, “Pyrimidone derivatives” (Mitsubishi Tanabe Pharma Corporation, priority 2009, dated 2015)
# Target: bovine cerebral TPK1 (Bos taurus, UniProt A0A059UE90)
# Test: Inhibitory activity against P-GS1 phosphorylation by bovine cerebral TPK1
# Format: biochemical
# Settings: not given
# Method: Inhibitory Activity of the Medicament of the Present Invention Against P-GS1 Phosphorylation by Bovine Cerebral TPK1 […] The phosphorylation was started by adding ATP, and the reaction was conducted at 25° C. for 2 hours, and then stopped by adding 21% perchloric acid on ice cooling. The reaction mixture was centrifuged at 12,000 rpm for 5 minutes and adsorbed on P81 paper (Whatmann), and then the paper was washed four times with 75 mM phosphoric acid, three times with water and once with acetone. The paper was dried, and the residual radioactivity was measured using a liquid scintillation counter.
# bovine cerebral TPK1, sequence (A0A059UE90 1-419): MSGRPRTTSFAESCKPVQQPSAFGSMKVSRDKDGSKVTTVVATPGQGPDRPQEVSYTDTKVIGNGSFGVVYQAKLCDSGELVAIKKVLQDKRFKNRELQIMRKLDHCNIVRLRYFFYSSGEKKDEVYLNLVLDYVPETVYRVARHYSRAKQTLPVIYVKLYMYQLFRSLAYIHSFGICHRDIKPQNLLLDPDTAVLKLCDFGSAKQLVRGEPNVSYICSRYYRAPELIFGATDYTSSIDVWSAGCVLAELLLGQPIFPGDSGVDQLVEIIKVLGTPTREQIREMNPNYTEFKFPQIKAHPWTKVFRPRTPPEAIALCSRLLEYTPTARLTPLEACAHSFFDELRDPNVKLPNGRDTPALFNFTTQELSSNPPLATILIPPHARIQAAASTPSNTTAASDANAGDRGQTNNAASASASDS
row,Structure (SMILES),IC50
1,"Cn1c(O[C@H]2C[C@H]3CC[C@@H](C2)N3)nc(-c2ccncn2)cc1=O [Compound No. 2.101, endo-2-(8-Aza-bicyclo[3.2.1]oct-3-yloxy)-1-methyl-1H-[4,4′] bipyrimidinyl-6-one]",115 to 342 nM

# Same assay, conditions: P-GS1 phosphorylation, 41.7 μM [γ-32P] ATP, 25° C., 2 hours; read-out: IC50
row,Structure (SMILES),IC50
1,"Cn1c(OC2CCN(c3ccc(CN4CCNCC4)cc3)CC2)nc(-c2ccncn2)cc1=O [Compound No. 1.202, 1-Methyl-2-[1-(4-piperazin-1-ylmethyl-phenyl)piperidin-4-yloxy]-1H-[4,4′]bipyrimidinyl-6-one]",13 nM
2,"Cn1c(O[C@H]2CC[C@H](c3ccc(CO)cc3)CC2)nc(-c2ccncn2)cc1=O [Compound No. 1.901, 2-[trans-4-(4-Hydroxymethyl-phenyl)cyclohexyloxy]-1-methyl-1H-[4,4′]bipyrimidinyl-6-one]",115 nM
3,"Cn1c(O[C@H]2CC[C@@H](c3ccc(CO)cc3)CC2)nc(-c2ccncn2)cc1=O [Compound No. 1.902, 2-[cis-4-(4-Hydroxymethyl-phenyl)cyclohexyloxy]-1-methyl-1H-[4,4′]bipyrimidinyl-6-one]",124 nM
4,"COC(=O)N1CCCC(Oc2nc(-c3ccncn3)cc(=O)n2C)C1 (stereo not shown) [Compound No. 1.102, Methyl 3-(1-methyl-6-oxo-1,6-dihydro-[4,4′]bipyrimidinyl-2-yloxy) piperidine-1-carboxylate]",28.2 nM
5,"Cn1c(O[C@H]2C[C@H]3CC[C@@H](C2)N3c2ccc(F)cc2)nc(-c2ccncn2)cc1=O [Compound No. 2.102, endo-2-[8-(4-Fluoro-phenyl)-8-aza-bicyclo[3.2.1]oct-3-yloxy]-1-methyl-1H-[4,4′]bipyrimidinyl-6-one]",236 nM
6,"Cn1c(OC2CCN(c3ccc4c(c3)COC(=O)N4)CC2)nc(-c2ccncn2)cc1=O [Compound No. 1.401, 1-Methyl-2-{[1-(2-oxo-1,4-dhydro-2H-3,1-benzoxazin-6-yl)piperidin-4-yl]oxy}-1H-[4,4′] bipyrimidinyl-6-one]",43.7 nM

# The remaining lines, values ahead:
row,IC50,Structure (SMILES)
1,37.6 nM,"Cn1c(OC2CCN(c3ccccc3)CC2)nc(-c2ccncn2)cc1=O [1.205, 1-Methyl-2-(1-phenyl-piperidin-4-yloxy)-1H-[4,4′]bipyrimidinyl-6-one]"
2,260 nM,"CCCCCCOc1nc(-c2ccncc2)cc(=O)n1C [2.003, 2-Hexyloxy-3-methyl-6-pyridin-4-yl-3H-pyrimidin-4-one]"
3,431 nM,"CCN(CCOc1nc(-c2ccncn2)cc(=O)n1C)c1cccc(C)c1 [1.809, 2-[2-(Ethyl-m-tolyl-amino)-ethoxy]-1-methyl-1H-[4,4′] bipyrimidinyl-6-one]"
4,216 nM,"Cn1c(OC2CCN(c3cncnc3)CC2)nc(-c2ccncc2F)cc1=O [1.229, 6-(3-Fluoro-pyridin-4-yl)-3-methyl-2-(1-pyrimidin-5-yl-piperidin-4-yloxy)-3H-pyrimidin-4-one]"
5,153 nM,"Cn1c(OC2CCN(c3ccc(CN4CCCC4=O)cc3)CC2)nc(-c2ccncc2F)cc1=O [1.218, 6-(3-Fluoro-pyridin-4-yl)-3-methyl-2-{1-[4-(2-oxo-pyrrolidin-1-ylmethyl)phenyl]piperidin-4-yloxy}-3H-pyrimidin-4-one]"
6,59.9 nM,"Cc1ccccc1N1CCC(Oc2nc(-c3ccncn3)cc(=O)n2C)CC1 [1.206, 1-Methyl-2-(1-o-tolyl-piperidin-4-yloxy)-1H-[4,4′]bipyrimidinyl-6-one]"
7,555 nM,"Cn1c(OC2CCN(c3ccc([N+](=O)[O-])s3)CC2)nc(-c2ccncn2)cc1=O [1.228, 1-Methyl-2-[1-(5-nitro-thiophen-2-yl)piperidin-4-yloxy]-1H-[4,4′] bipyrimidinyl-6-one]"
8,245 nM,"Cn1c(OC2CCNCC2)nc(-c2ccncc2F)cc1=O [1.204, 6-(3-Fluoro-pyridin-4-yl)-3-methyl-2-(piperidin-4-yloxy)-3H-pyrimidin-4-one]"
9,8.4 nM,"Cn1c(OC2CCN(c3ccc(CN4Cc5ccccc5C4)cc3)CC2)nc(-c2ccncn2)cc1=O [1.219, 2-{1-[4-(1,3-Dihydro-isoindol-2-ylmethyl)phenyl]piperidin-4-yloxy}-1-methyl-1H-[4,4′]bipyrimidinyl-6-one]"
